From US7582418B2, “Antimicrobial chelates” (Albion Laboratories, Inc., priority 2004, dated 2009)

Key:
Format in all cases: cell-based
[1] = test system: Staphlococcus aureus; assay: Turbidity assay (TSB tubes, plated out); parameters: key: no-growth (NG) which corresponds with excellent inhibitory activity; partial growth (PG) which corresponds with good inhibitory activity; complete growth (CG) which corresponds with little or no inhibitory activity; conditions: TSB tube with 1.0 mL sample solution (100 mg/mL) and 50 μL 24-hour culture; after 24 hours plated, incubated 24 hours
Experimental: (§1) In the second method, turbidity assays were conducted. Tryptic soy broth (TSB) tubes were inoculated with 1.0 mL of sample solutions (100 mg/mL) and 50 μL of 24-hour cultures of each microbe. In the case of C. albicans, 100 μL of 24-hour culture was used. After 24 hours, an aliquot from each tube was plated out onto nutrient media and incubated for 24 hours. Following incubation, colonies on each plate were observed and characterized as one of three categories: no-growth (NG) which corresponds with excellent inhibitory activity, partial growth (PG) which corresponds with good inhibitory activity, complete growth (CG) which corresponds with little or no inhibitory activity.
(§2) S. pyongenes, could not be grown in the solution, so the turbidity assay was not conducted for that microorganism. When the data from both zone inhibition (Table 2) and turbidity (Table 3) assays are compared, an indication of the inhibition activity may be evident.

[2] = test system: Eschrichia coli; assay: Turbidity assay (TSB tubes, plated out); parameters: key: no-growth (NG) which corresponds with excellent inhibitory activity; partial growth (PG) which corresponds with good inhibitory activity; complete growth (CG) which corresponds with little or no inhibitory activity; conditions: TSB tube with 1.0 mL sample solution (100 mg/mL) and 50 μL 24-hour culture; after 24 hours plated, incubated 24 hours
Experimental: as §1, §2

[3] = test system: Candida albicans; assay: Turbidity assay (TSB tubes, plated out); parameters: key: no-growth (NG) which corresponds with excellent inhibitory activity; partial growth (PG) which corresponds with good inhibitory activity; complete growth (CG) which corresponds with little or no inhibitory activity; conditions: TSB tube with 1.0 mL sample solution (100 mg/mL) and 100 μL 24-hour culture; after 24 hours plated, incubated 24 hours
Experimental: as §1, §2

[4] = test system: Staphlococcus aureus; assay: Zone inhibition assay (filter paper disc area diffusion); conditions: distance from edge of disc to bacterial growth; discs saturated with 100 mg/ml solution (antibiotic control discs 5-30 μg); 24 hours at 37° C.
Experimental: (§3) Two methods were used to examine whether an inhibitory effect from the zinc containing compounds was observable and if there was an inhibitory effect, whether the effect was bactericidal (bacteria-killing) or bacteriostatic (bacterial-inhibiting) in nature. In the first method, two Gram-positive bacteria strains (Staphlococcus aureus, Streptococcus pyogenes), two Gram-negative bacteria strains (Salmonella typhimerium, Eschrichia coli), and one common yeast strain (Candida albicans) were grown nutrient agar plates, except in the case of S. pyogenes which was grown on blood agar plates.
(§4) Zone inhibition assays were conducted with eighteen different samples in accordance with the methodology described by Maruzella, J. C. and Henry, P. A., J. Am. Pharm. Assoc. 47:894 (1958) for filter paper disc area diffusion. Sample solutions were prepared to approximate 100 mg/mL concentrations.
(§5) Organisms were grown for 24 hours at 37° C. on blood agar plates with the exception of Candida albicans which was grown in a standard methods agar (SMA) medium. Solutions of each sample were prepared using sterile DD water at a concentration of 100 mg/ml. Paper discs were saturated with solution from each sample and dried aseptically. […] Following drying of solution derived discs, all discs were placed on agar plates with each of the five different microorganisms.

[5] = test system: Salmonella typhimerium; assay: as above; conditions: distance from edge of disc to bacterial growth; discs saturated with 100 mg/ml solution (antibiotic control discs 5-30 μg); 24 hours at 37° C.
Experimental: as §3, §4, §5

[6] = test system: Eschrichia coli; assay: as above; conditions: distance from edge of disc to bacterial growth; discs saturated with 100 mg/ml solution (antibiotic control discs 5-30 μg); 24 hours at 37° C.
Experimental: as §3, §4, §5

[7] = test system: Candida albicans; assay: as above; conditions: distance from edge of disc to growth; discs saturated with 100 mg/ml solution (antibiotic control discs 5-30 μg); 24 hours at 37° C.
Experimental: as §3, §4, §5

[8] = test system: Streptococcus pyogenes; assay: as above; conditions: distance from edge of disc to bacterial growth; blood agar; discs saturated with 100 mg/ml solution (antibiotic control discs 5-30 μg); 24 hours at 37° C.
Experimental: as §3, §4, §5

Row | Compound | colony growth category, Staphlococcus aureus [1] | colony growth category, Eschrichia coli [2] | colony growth category, Candida albicans [3] | inhibitory zone, Staphlococcus aureus [4] | inhibitory zone, Salmonella typhimerium [5] | inhibitory zone, Eschrichia coli [6] | inhibitory zone, Candida albicans [7] | inhibitory zone, Streptococcus pyogenes [8]
1 | Cc1cc(NS(=O)(=O)c2ccc(N)cc2)no1 [Sample 12, Sulfamethoxazole] | CG | CG | CG | 3.5 millimeters | 4 millimeters | 3 millimeters | no activity | 7.5 millimeters
2 | CC(=O)[O-].[Na+] [Sample 15, Sodium Acetate] | NG | NG | CG | no activity | no activity | no activity | no activity | no activity
